Source: patent US20240415845A1, “Compositions of Iboga Alkaloids and Methods of Treatment” (priority 2022, published 2024)
Entries after “also recorded” stand apart in the source; their conditions may differ.

Legend:
Type in all cases: in vivo, human
[1] = test system: special operations veterans with combat and/or blast exposure; assay: World Health Organization Disability Assessment Schedule 2.0 (WHODAS 2.0); settings: for WHODAS 2.0 Total, effect size D (Cohen's D) / WHODAS 2.0 Total score: all participants; for WHODAS 2.0 Total score: baseline 30.2 ± 14.7, mean ± SD; for WHODAS 2.0 Self Care subscale: baseline 5.2% ± 9.2%; for WHODAS 2.0 Mobility subscale: baseline 14.7% ± 15.7%; for WHODAS 2.0 Interpersonal subscale: baseline 32.3% ± 20.4; for WHODAS 2.0 Community Participation subscale: baseline 35.6% ± 21.1%; for WHODAS 2.0 Cognition subscale: baseline 36.1% ± 14.6%; for WHODAS 2.0 Life Activities subscale: baseline 41.1% ± 24.8%
Text: The pre-specified primary outcome was change in the World Health Organization Disability Assessment Schedule 2.0 (WHODAS) (Gold L. H. et al., J. Am. Acad. Psychiatry Law 42, 9 (2014)) from baseline to post-treatment, with change from baseline to the one-month follow-up a secondary outcome. Additional pre-specified secondary outcomes included post-treatment changes on the Clinician Administered PTSD Scale (CAPS-5; Weathers, F. W. et al., Psychol. Assess., 30, 383-395 (2018)), Montgomery-Åsberg Depression Rating Scale (MADRS; Montgomery, S. A., Br. J. Psychiatry J. Ment. Sci., 134, 382-389 (1979)) and the Hamilton-Anxiety Rating Scale (HAM-A; Bruss, G. S., et al., Psychiatry Res., 53, 191-202 (1994)). […] An additional dose of magnesium was administered approximately 12 hours later. To assess the significance of post-treatment changes, linear mixed effects (LME) models were used for each outcome measure. False Discovery Rate (FDR; Benjamini, Y. et al., J. R. Stat. Soc. Ser. B Methodol., 57, 289-300 (1995)) was applied to correct for multiple comparisons.
(§1) With subjects in the fasting state, an intravenous infusion of 1 gram of magnesium sulfate was administered 1-2 hours prior to treatment. […] Medical staff (MD, RN, or EMT) were onsite at a ratio of at least 1 staff per 2 patients throughout treatment for monitoring and management, but no specific coaching or psychological support was provided during treatment.
Post treatment, each subject was assessed four days after treatment, one month after treatment, and, if willing, one year after treatment. The post-treatment assessments conducted at four days and at one month after treatment included neuropsychological testing, measures of PTSD, depression, anxiety, mystical experiences, functional imaging and EEG. Post-treatment assessments conducted at one year after treatment included PTSD, depression, and anxiety measures.
World Health Organization Disability Assessment Scale 2.0 (WHODAS 2.0) was used as a measure of function. WHODAS was used to assess the impact of health conditions across six life domains (cognition, mobility, self-care, interpersonal, life activities, and community participation) and it is sensitive to change over time (Gold, L. H., J. Am. Acad. Psychiatry Law 42, 9 (2014). Each item in the assessment is rated on a scale ranging from no problems to extreme problems (Üstün, T. B. et al., Measuring health and disability: Manual for WHO disability assessment schedule WHODAS 2.0. (World Health Organization, 2010)). To capture inter-individual variability in disability the WHODAS complex scoring method was used. Raw scores were converted to a metric ranging from 0(no disability) to 100 (full disability), by calculating the ratio of the participant's score relative to the maximum possible score in each domain as well as to the total score (Id.). A score of 20%-39% was considered mild, 40%-59% was moderate, 60%-79% was moderate-severe and 80%-100% was severe. Scores from baseline were compared to scores from one-month post treatment.
A measure of disability for health and disability on life functions is the World Health Organization Disability Assessment Schedule 2.0 (WHODAS). The items are designed to be sensitive to change due to a treatment, and the measure assesses disability over the past 30 days. The items measured are cognition, self-care, mobility, getting along. life activity, and participation in society. The WHODAS measure gives a rating of 1 for no disability, 2 for mild disability and 3 for moderate disability. FIG. 7A is a graph showing results from the World Health Organization Disability Assessment Scale 2.0 (WHODAS 2.0) assessment for each subject at baseline (prior to treatment), about one week after treatment, and one month after treatment. The dashed line represents the means of the individual scores. FIG. 7B is a bar graph of self-reported disability using the WHODAS total scores at baseline and one-month after treatment.

[2] = test system: special operations veterans with combat and/or blast exposure; assay: Safety monitoring during and after treatment (adverse events, QTc by ECG)
Experimental: as §1

[3] = test system: special operations veterans with combat and/or blast exposure; assay: Clinician-rated psychiatric assessments taken together (CAPS-5, MADRS, HAM-A)
Experimental: To further assess changes in comorbid psychiatric symptoms identified by the models, mean percent reduction, response rate, and remission rate according to the CAPS-5, MADRS and HAM-A (Table 1) were calculated. Response on the CAPS-5, MADRS, and HAM-A was defined as a reduction of at least 10 points (Mitchell, J. M. et al., Nat. Med. 27, 1025-1033(2021)), 50% (Leucht, S. et al., J. Affect. Disord. 210, 287-293 (2017)), and 50% (McIntyre, A. et al., Depress. Anxiety 24, 487-494 (2007)), respectively; remission as loss of diagnosis and a total score below 12 (Mitchell, J. M. et al. supra), <8 (Leucht, S. et al. supra), and <8(McIntyre, A. et al., supra), respectively. One participant's baseline scores met criteria for remission in all three scales and so were excluded from the calculation of response and remission rates, leaving 29 participants in these specific analyses.
The results were similar, with remission rates at one-month follow up of at least 67% (Table 1-3 in Example 1). To determine if the participants with more severe TBI history may be biasing results, a sensitivity analysis excluding the participants with non-mild TBI; results was done, again with the results largely unchanged (Table 1-4 in Example 1), with remission rates at one-month follow up of at least 85%.

[4] = one-week and one-month post, 29 participants

## CCC1CC2CC3c4[nH]c5ccc(OC)cc5c4CCN(C2)C13 (centres unmarked) [ibogaine, Ibogaine]
[1]; baseline vs one-month
  WHODAS 2.0 Cognition subscale, effect size D: 2.38
  WHODAS 2.0 Community Participation subscale, effect size D: 1.78
  WHODAS 2.0 Interpersonal subscale, effect size D: 1.63
  WHODAS 2.0 Life Activities subscale, effect size D: 1.44
  WHODAS 2.0 Mobility subscale, effect size D: 0.83
  WHODAS 2.0 Self Care subscale, effect size D: 0.51
[1]; baseline vs one-month post
  WHODAS 2.0 Total, effect size D (Cohen's D): 2.20
[1]; baseline vs one-week post
  WHODAS 2.0 Total, effect size D (Cohen's D): 0.74
[1]; baseline vs post-treatment
  WHODAS 2.0 Cognition subscale, effect size D: 0.96
  WHODAS 2.0 Community Participation subscale, effect size D: 0.53
  WHODAS 2.0 Interpersonal subscale, effect size D: 0.60
  WHODAS 2.0 Life Activities subscale, effect size D: 0.48
  WHODAS 2.0 Mobility subscale, effect size D: 0.53
  WHODAS 2.0 Self Care subscale, effect size D: 0.37
[1]; one-month post treatment, baseline about 2.5 (FIG. 7B)
  self-reported disability WHODAS total score (rating 1 no, 2 mild, 3 moderate disability): over 1
[1]; one-month post
  WHODAS 2.0 Total score: 5.1
[1]; one-month
  WHODAS 2.0 Self Care subscale: 1.0% ±
  WHODAS 2.0 Mobility subscale: 1.3% ±
  WHODAS 2.0 Interpersonal subscale: 4.8% ±
  WHODAS 2.0 Community Participation subscale: 5.9% ±
  WHODAS 2.0 Cognition subscale: 5.0% ±
  WHODAS 2.0 Life Activities subscale: 9.1% ±
[1]; one-week post
  WHODAS 2.0 Total score: 19.9
[1]; post-treatment
  WHODAS 2.0 Self Care subscale: 1.9% ±
  WHODAS 2.0 Mobility subscale: 7.2% ±
  WHODAS 2.0 Interpersonal subscale: 21.7% ±
  WHODAS 2.0 Community Participation subscale: 24.7% ±
  WHODAS 2.0 Cognition subscale: 19.2% ±
  WHODAS 2.0 Life Activities subscale: 31.6% ±
[2]; 30 participants
  participants with transient cerebellar signs such as mild ataxia and intention tremor: All participants
[2]; 30 participants, oral ibogaine with IV magnesium sulfate
  unexpected or serious treatment-emergent side effects / adverse events: no unexpected or serious treatment-emergent side effects; also recorded: no unexpected or serious adverse events
[2]; continuous 5-lead ECG for 12-16 hours following administration
  prolongation of QTc: no instances of a concerning prolongation of QTc
[2]; human, in vivo, oral
  time to resolution of transient cerebellar signs: ≤ 24 h
[2]; while experiencing the oneirogenic effects, 1 participant
  participants treated for insomnia: 3%
[2]; while experiencing the oneirogenic effects, 2 participants
  participants treated for hypertension: 7%
[2]; while experiencing the oneirogenic effects, 3 participants
  participants treated for anxiety: 10%
[2]; while experiencing the oneirogenic effects, 7 participants
  participants treated for nausea: 23%
[2]; while experiencing the oneirogenic effects, 12 participants
  participants treated for headache: 40%
[3]; one-month follow up, excluding participants with non-mild TBI
  remission rates on CAPS-5, MADRS and HAM-A: at least 85%
[3]; one-month follow up, subgroups meeting criteria for the disorder assessed by the scale
  remission rates on CAPS-5, MADRS and HAM-A: at least 67%
[3]; [4]
  remission rates on CAPS-5, MADRS and HAM-A: at least 83%
  response rates on CAPS-5, MADRS and HAM-A: at least 93%
[3]; one-week and one-month post, all participants
  mean percent reductions on CAPS-5, MADRS and HAM-A: at least 81%
[3]; secondary analyses
  remission rates for comorbid PTSD, depression, and anxiety: around 80%
